One data set in a line: in vitro. The following applies: mouse, 3T3-L1 cells during proliferation. On the procedure:
Culture medium was removed at 24, 48 and 72 hrs and MTT (0.5 mg/ml in pure DMEM, 50 μl/well) was added.

The nature of data set [1]: Serum triglyceride assay in mice. It is filed as in vivo, mouse. On the procedure: (§1) Six mice per subgroup were obtained finally.
(§2) Serum glucose, triglyceride, cholesterol assay: Blood samples from each mouse were collected and serum was separated by centrifugation for the measurement of levels of glucose, triglyceride and total cholesterol. Serum glucose concentrations were analyzed using Glucose (HK) Assay Kit (Sigma-aldrich, Saint Louis, Mo., USA). Serum triglyceride concentrations were analyzed using Serum Triglyceride Determination Kit (Sigma-aldrich, Saint Louis, Mo., USA). Serum cholesterol concentrations were analyzed using Amplex® Red Cholesterol Assay Kit (Invitrogen, Carlsbad, Calif., USA). All experimental assays were done according to the manufacturer's instructions.

Data set [2] deals with GATA-2. The experiment in a line: Immunoblot, GATA-2 protein in 3T3-L1 cells. It is filed as cell-based, mouse. The following applies: DM + 1, 2, 4, 8 μM, 8 days, p<0.05. On the procedure: Immunoblot Analysis: GATA-2 and GATA-3 protein expression were assessed by Western blot. […] The cells were washed twice with PBS, lysed in a lysis buffer (HEPES-Tx-PI buffer: 10 mM HEPES, 5 mM EDTA, 350 mM Sucrose, 1 ug/ml leupeptin, 1 ug/ml pepstatin, 1% Triton-X, 1 mM PMSF, diluted in water), processed with a 25G needle and centrifuged at 10,000 rpm for 5 min. Protein concentration was determined using the […] according to the Pierce Protein Assay Protocol. Total protein (50 μg) was used for GATA-2 and GATA-3 analysis and was separated by electrophoresis using BioRad Electrophoretic System (60 V for 1 hour followed by 90 V for 5 hours). The protein was then transferred to nitrocellulose membranes at 35 V overnight. The membrane was blocked for 1 hour at room temperature in 5% nonfat milk in Tris-buffered saline (TBS), then washed with Tween-20-TBS (TTBS, 0.1% Tween-20) three times (15 min, 5 min, 5 min), followed by incubation with primary antibodies of GATA-2 (dilution 1:500), GATA-3 (dilution 1:500), β-Actin (dilution 1:1000) at room temperature for 2 hours. The membrane was rinsed three times (15 min, 5 min, 5 min), then incubated at room temperature for 1 hour with Horseradish peroxidase-conjugated second antibody (1:10,000). The membrane was then incubated in ECL reagent for 1 minute. Protein was visualized using UVP image analysis system.

The nature of data set [3]: Serum glucose assay in mice. It is filed as in vivo, mouse. On the procedure: as §1, §2
Data set [4] deals with SERT (serotonin transporter). Kind of data set: Real-Time RT-PCR, SERT mRNA in RN46A cells. It is filed as cell-based. On the procedure: Realtime RT-PCR: Real-Time reverse transcriptase polymerase chain reaction (RT-PCR) analysis was used to measure mRNA expression of SERT under the control of β-actin. Briefly, total RNA was isolated from RN46A cells following treatment with Trizol reagent (Invitrogen, Carlsbad, Calif., USA) according to the manufacturer's instruction. […] 0.8 μg of total RNA from each sample was used for reverse transcription reaction using the TaqMan Reverse Transcription Reagents (Applied Biosystems, Foster City, Calif., USA) following the manufacturer's instructions. PCR was done using the SYBR green Master Mix (Applied Biosystems, Foster City, Calif., USA) following the manufacturer's instructions. The temperature cycling conditions of amplification were as follows: an initial step of denaturation at 95° C. for 10 min, 40 cycles of denaturation at 95° C. for 30 s, annealing at 55° C. for 30 s, and elongation at 72° C. for 30 s. Real-Time RT-PCR was performed using Mx3000P Real-Time Thermocyclers (Statagene, La Jolla, Calif., USA).
A general note: Quantitative PCR measures a nucleic acid by following its amplification.

Data set [5] deals with GATA-2. The experiment in a line: Immunoblot, GATA-2 protein in HWP. It is filed as cell-based, human. The note with it: day 15. On the procedure:
Immunoblot Analysis: Protein expression of GATA-2, GATA-3, PPARγ and C/EBPα were assessed by Western Blot. Total proteins were isolated from HWP treated with compounds or vehicles on day 15. The cells were washed twice with PBS, lysed in a lysis buffer containing HEPES-Tx-PI buffer: […] HEPES, 5 mM EDTA, 350 mM Sucrose, 1 μg/ml leupeptin, 1 μg/ml pepstatin, 1% Triton-X, 1 mM PMSF), processed with a 25G needle and centrifuged at 10,000 rpm for 5 min. Protein concentration was determined using the Micro BCA Protein Assay Kit (Fisher Scientific, Pittsburgh, Pa., USA) according to the manufacturers instructions. 20 μg proteins were loaded and separated by electrophoresis using the BioRad Electrophoretic System (60 V for 1 hour followed by 90 V for 5 hours). The proteins were then transferred to nitrocellulose membranes at 35 V overnight. The membrane was blocked for 1 hour at room temperature in 5% nonfat milk in Tris-buffered saline (TBS), then washed with Tween-20-TBS (TTBS, 0.1% Tween-20) three times (15 min, 5 min, 5 min), followed by incubation with primary antibodies human GATA-2, GATA-3, PPARγ, C/EBPα and β-actin (dilution 1:200) (all antibodies were purchased from Santa Cruz Biotechnology, Santa Cruz, Calif., USA) at room temperature for 2 hours. The membrane was rinsed three times (15 min, 5 min, 5 min), then incubated at room temperature for 1 hour with Horseradish peroxidase-conjugated second antibody (1:10,000). The membrane was then incubated in ECL reagent (GE Healthcare, Piscataway, N.J., USA) for 1 minute. Protein was visualized using the UVP image analysis system (UVP, Upland, Calif., USA).
For orientation: In western blotting, separated proteins are transferred to a membrane and probed.

The mark [6] stands for this setting: FD mice, 1.5 mg/kg/day, 36 days.

Consider two compounds from patent US20110281852A1 (priority 2010, published 2011).

`COc1ccc2cc3[n+](cc2c1OC)CCc1cc2c(cc1-3)OCO2.[Cl-]` [berberine, Berberine (Chloride Form)]: the cytotoxicity at 1 day, 8 μM in the data set “in vitro” is 13.2%. Further, the cytotoxicity at 2 days, 8 μM in “in vitro” amounted to 13.8%. Moreover, the cytotoxicity at 3 days, 8 μM in “in vitro” was 18.6%. Also, the “reduction of serum triglyceride level vs control treated group” value is listed as 31.2% in data set [1] (FD mice, 0.75 mg/kg/day); 25.2% in data set [1] (FD mice, 1.5 mg/kg/day); 37.8% in data set [1] (FD mice, 3 mg/kg/day). Also, the serum triglyceride level in data set [1] (FD mice, 0.75 mg/kg/day, 36 days (control 135.6±17.0)) came out at 93.2 ± 20.8 mg/dL; in data set [1] (setting [6]), 101.4 ± 9.7 mg/dL; in data set [1] (FD mice, 3 mg/kg/day, 36 days), 84.3 ± 18 mg/dL; in data set [1] (ND mice, 3 mg/kg/day (control 70.7±14)), 70.7 ± 12.8 mg/dL. Also, in the data set on GATA-2 [2], the GATA-2 protein expression result is “increase”. For the same compound, the “reduction of serum glucose level vs control treated subgroup” value was 19.5% in data set [3] (FD mice, 0.75 mg/kg/day); 22.3% in data set [3] (FD mice, 1.5 mg/kg/day); 26.5% in data set [3] (FD mice, 3 mg/kg/day). The “fasting serum glucose level” value in data set [3] (FD mice, 0.75 mg/kg/day, 36 days (control 195.4±27.3)) stood at 157.3 ± 22.5 mg/dL; in data set [3] (setting [6]) it was 151.8 ± 21.1 mg/dL; in data set [3] (FD mice, 3 mg/kg/day, 36 days), 143.5 ± 12.7 mg/dL; in data set [3] (ND mice, 3 mg/kg/day (control 120.6±27.5)), 130.9 ± 16.2 mg/dL.

Turning to evodiamine, the “increase of SERT mRNA expression vs control group” value amounted to 2.5 fold in data set [4] (2 μM evodiamine) and 1.7 fold in data set [4] (4 μM evodiamine). Further, the “GATA-2 protein expression relative to β-actin, normalized with controls” value in the data set with GATA-2 [5] (1 μM) came out at 2.44 fold; in the data set with GATA-2 [5] (2 μM), 4.81 fold; in the data set on GATA-2 [5] (4 μM), 4.92 fold.
